Measurements as given in article PMC10545567, “A complex bearing TSPO PIGA ligand coordinated to the [Au(PEt3)]^+ pharmacophore is highly cytotoxic against ovarian cancer cells” (Biometals, 2023).

Target: T1, Thioredoxin reductase (TrxR) (Rattus norvegicus, UniProt O89049)
T1 construct: gene Txnrd1
Assay: DTNB reduction assay with isolated rat liver TrxR, […] nm, […] min preincubation with NADPH

T1 sequence (O89049 whole entry): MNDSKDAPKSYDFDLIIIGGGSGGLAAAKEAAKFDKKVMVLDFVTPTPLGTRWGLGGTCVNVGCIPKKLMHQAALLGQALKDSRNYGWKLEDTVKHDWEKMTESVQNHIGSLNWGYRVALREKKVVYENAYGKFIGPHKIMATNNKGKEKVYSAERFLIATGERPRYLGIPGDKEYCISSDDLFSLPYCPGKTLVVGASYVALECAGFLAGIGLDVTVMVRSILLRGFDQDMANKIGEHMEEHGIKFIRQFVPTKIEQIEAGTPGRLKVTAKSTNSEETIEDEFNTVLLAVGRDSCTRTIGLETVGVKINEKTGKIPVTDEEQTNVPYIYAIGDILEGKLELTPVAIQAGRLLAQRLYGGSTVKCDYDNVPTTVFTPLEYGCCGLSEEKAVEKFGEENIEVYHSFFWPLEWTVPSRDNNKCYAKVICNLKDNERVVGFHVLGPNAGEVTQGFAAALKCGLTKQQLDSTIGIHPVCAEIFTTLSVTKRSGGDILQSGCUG

Compound	IC50 [nM]
CCCCCCN(CCCCCC)C(=O)C(=O)c1c(-c2ccccc2)[n]([Au-][P+](CC)(CC)CC)c2ccccc12 [compound 1, [N,N-di-n-hexyl-2-(2-phenyl-1-indol-kN-3-yl)glyoxylamido]-AuPEt3]	59.2
CC[P+](CC)(CC)[Au-][Cl] [compound 5, Et3PAuCl]	51.1
